The values below come from US20140228287A1, “1-[(3-CYANO-PYRIDIN-2-YL)METHYL]-3-METHYL-7-(2-BUTYN-1-YL)-8-[3-(R)-AMINO-PIPERIDIN-1-YL]-AXANTHINE FOR THE TREATMENT OF A METABOLIC DISORDER OF A PREDOMINANTLY CARNIVOROUS NON-HUMAN ANIMAL” (BOEHRINGER INGELHEIM VETMEDICA GMBH, priority 2010, published 2014).

Structures can show the parent of a compound that is named as a salt. Where two headings read alike, the source gives them in different places.

The target in one data set is T1, plasma DPP IV (Mus musculus, UniProt P28843).
T1 construct: from tissue; host or cells: mouse plasma
T1 sequence (P28843 37-760 limits assumed): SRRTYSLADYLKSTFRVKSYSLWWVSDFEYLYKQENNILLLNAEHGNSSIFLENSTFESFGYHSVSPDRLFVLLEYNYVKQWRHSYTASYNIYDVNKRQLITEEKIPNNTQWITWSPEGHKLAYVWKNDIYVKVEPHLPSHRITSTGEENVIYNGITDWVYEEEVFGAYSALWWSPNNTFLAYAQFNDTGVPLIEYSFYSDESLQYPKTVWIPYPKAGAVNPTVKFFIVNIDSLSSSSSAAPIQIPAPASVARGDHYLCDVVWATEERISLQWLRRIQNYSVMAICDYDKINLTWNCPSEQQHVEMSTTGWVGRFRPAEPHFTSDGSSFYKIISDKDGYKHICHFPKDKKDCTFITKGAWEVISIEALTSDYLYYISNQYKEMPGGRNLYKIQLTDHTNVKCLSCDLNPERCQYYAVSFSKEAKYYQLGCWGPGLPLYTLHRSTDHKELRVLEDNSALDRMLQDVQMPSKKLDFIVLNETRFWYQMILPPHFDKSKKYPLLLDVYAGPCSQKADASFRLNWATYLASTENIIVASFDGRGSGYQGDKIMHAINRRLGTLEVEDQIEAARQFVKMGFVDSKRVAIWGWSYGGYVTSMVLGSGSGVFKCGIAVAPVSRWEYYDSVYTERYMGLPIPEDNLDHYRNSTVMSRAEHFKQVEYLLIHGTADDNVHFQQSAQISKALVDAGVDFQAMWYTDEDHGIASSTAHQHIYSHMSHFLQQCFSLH
Nature of the data set: Inhibition of plasma DPP IV activity in vitro, mouse plasma. In kind it is biochemical. As for the experimental part:
Studies were also conducted to assess the inhibitory effect of this compound on plasma DPP IV activity in several species.

A further data set addresses DPP 9 (Homo sapiens, UniProt Q86TI2). Nature of the data set: In vitro selectivity, human proteases: DPP 9. It is filed as biochemical. From the text:
In order to determine the in vitro selectivity of 1-[(3-cyano-pyridin-2-yl)methyl]-3-methyl-7-(2-butyn-1-yl)-8-[3-(R)-amino-piperidin-1-yl]-xanthine, the ability of this compound to inhibit a number of human proteases was investigated as described in Thomas et al. (2008), J. Pharmacol. Exp. Ther., vol. 325, p. 175-182, chapter In vitro DPP-4 Inhibition Assay, p. 176.

The next data set concerns the target M1 muscarinic receptors (Homo sapiens, UniProt P11229). Nature of the data set: Selectivity panel, radio ligand binding assay: M1. Particulars: only interaction observed in full panel of receptors, ion channels and enzymes. The procedure: In selectivity assays as described in Dörje et al. (1991), J. Pharmacol. Exp. Ther., vol. 256, p. 727-733, chapter Radio ligand binding studies, p. 729, using the full panel of receptors, ion channels and enzymes, the only interaction observed with 1-[(3-cyano-pyridin-2-yl)methyl]-3-methyl-7-(2-butyn-1-yl)-8-[3-(R)-amino-piperidin-1-yl]-xanthine monohydrochloride was with M1 muscarinic receptors, with IC50 in a binding assay of 3 μM.

Data set [1] has as its system normoglycaemic C57B1/6J mice. Nature of the data set: Oral glucose tolerance test (acute and delayed) in normoglycaemic mice. In kind it is in vivo, mouse. Particulars: for ED50: Mus musculus, po, read-out: ED50 for lowering the glucose AUC. The procedure:
The effect of 1-[(3-cyano-pyridin-2-yl)methyl]-3-methyl-7-(2-butyn-1-yl)-8-[3-(R)-amino-piperidin-1-yl]-xanthine on glucose tolerance in normoglycaemic C57B1/6J mice was assessed according to the following protocol of an oral glucose tolerance test (OGTT).
Male C57B1/6J mice (C57BL/6J@Rj) were obtained from Janvier (France). Animals were fed ad libitum with a standard pelleted diet (Diet No. 3438 [containing 19% protein, 4.5% fat], Provimi Kliba, Switzerland) and had free access to water. Animals were individually housed with a 12 h/12 h light/dark cycle (lights out between 6 p.m. and 6 a.m.). The mice were used for the experiments at 9 weeks of age.
For the determination of the acute oral glucose tolerance test, a basal blood sample (pre-dose) was obtained in the morning from overnight fasted C57B1/6J mice (n=7 per group) by cutting the tip of the tail without anaesthesia. Subsequently, the groups received a single oral administration of either vehicle or 1-[(3-cyano-pyridin-2-yl)methyl]-3-methyl-7-(2-butyn-1-yl)-8-[3-(R)-amino-piperidin-1-yl]-xanthine monohydrochloride at doses between 0.1 and 10 mg/kg bw, followed 45 min later by an oral administration of a glucose solution (2 g/kg bw, application volume 10 ml/kg bw). Additional blood samples were taken from the tip of the tail 30 min, 60 min, 90 min, 120 min, and 180 min after the glucose load, and blood glucose was measured. A final blood sample was drawn from the retrobulbal venous plexus under isoflurane anaesthesia 30 minutes after the last bleeding from the tail. EDTA plasma was prepared from this blood sample and frozen for determination of DPP-IV activity.
For the determination of the delayed oral glucose tolerance test, C57B1/6J mice (n=5 per group) were orally administered with either vehicle or 1-[(3-cyano-pyridin-2-yl)methyl]-3-methyl-7-(2-butyn-1-yl)-8-[3-(R)-amino-piperidin-1-yl]-xanthine monohydrochloride at doses between 0.1 and 10 mg/kg bw in the afternoon before the oral glucose tolerance test. […] Additional blood samples were taken from the tip of the tail 30 min, 60 min, 90 min, 120 min, and 180 min after the glucose load, and blood glucose was measured. […]
The two-sided unpaired Student t-test was used for statistical comparison of the control group and the active groups with the 5% level as the limit of statistical significance (*, P <0.05; **, P<0.01; ***, P<0.001). […] Changes from baseline (pre-dose value) within each group were analyzed by a paired Student t-test.
The area under the curve (AUC) for the time course of blood glucose concentrations during an OGTT was calculated by the trapezoidal rule after correction for the baseline values.
ED50 values were calculated by nonlinear regression analysis with a Hill coefficient of 1. […]

A short description of data set [2]: Exploratory single dose PK/PD (1.0/5.0/10.0 mg/kg) in cats: pharmacokinetics. It is filed as in vivo. Particulars: cat; for AUC(0-inf) / Cmax / MRT / Tmax / half-life: male, domestic short hair, plasma, free base by LC-MS/MS; for half-life: read-out: T1/2, mean (converted). The procedure:
The aim of this study was to investigate the PK/PD behaviour of 1-[(3-cyano-pyridin-2-yl)methyl]-3-methyl-7-(2-butyn-1-yl)-8-[3-(R)-amino-piperidin-1-yl]-xanthine in the cat following a single oral administration of 0, 1, 5 and 10 mg/kg body weight (dosages were based on the free base: 1 mg 1-[(3-cyano-pyridin-2-yl)methyl]-3-methyl-7-(2-butyn-1-yl)-8-[3-(R)-amino-piperidin-1-yl]-xanthine monohydrochloride corresponds to 0.923 mg 1-[(3-cyano-pyridin-2-yl)methyl]-3-methyl-7-(2-butyn-1-yl)-8-[3-(R)-amino-piperidin-1-yl]-xanthine free base).
Twelve clinically healthy male adult domestic short hair cats with a body weight range of 3.5-4.7 kg were used in this study. All animals were treated orally once via a stomach tube. Blood samples for pharmacokinetic and pharmacodynamic (DPP IV activity) investigations were drawn at 0 h (i.e. prior to treatment), 30 min as well as 1, 2, 4, 8, 8.5, 9, 12, 24, 36, 48, 72, 84 and 96 h after treatment. Blood samples for pharmacodynamic (glucagon-like peptide 1 concentrations) investigations were drawn at −16 (i.e. prior to feeding), −15.5, −15 h as well as at 8 h (i.e. prior to feeding), 8.5 and 9 h after treatment.
PK data for 1-[(3-cyano-pyridin-2-yl)methyl]-3-methyl-7-(2-butyn-1-yl)-8-[3-(R)-amino-piperidin-1-yl]-xanthine free base were determined with a validated LC-MS/MS method and are summarized in Table 6.

M1 muscarinic receptors, sequence (P11229 whole entry): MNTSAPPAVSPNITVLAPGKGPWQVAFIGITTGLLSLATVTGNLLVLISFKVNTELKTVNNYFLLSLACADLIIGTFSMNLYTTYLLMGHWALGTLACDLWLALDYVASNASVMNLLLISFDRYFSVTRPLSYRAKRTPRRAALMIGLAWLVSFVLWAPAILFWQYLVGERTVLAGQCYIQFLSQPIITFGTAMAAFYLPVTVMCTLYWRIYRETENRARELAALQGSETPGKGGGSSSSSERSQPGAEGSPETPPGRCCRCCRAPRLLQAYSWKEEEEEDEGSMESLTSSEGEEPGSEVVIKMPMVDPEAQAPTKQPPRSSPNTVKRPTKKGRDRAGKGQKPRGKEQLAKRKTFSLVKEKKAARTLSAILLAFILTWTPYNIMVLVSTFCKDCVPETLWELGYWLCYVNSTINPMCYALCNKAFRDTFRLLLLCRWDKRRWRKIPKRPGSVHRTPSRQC
DPP 9, sequence (Q86TI2 whole entry): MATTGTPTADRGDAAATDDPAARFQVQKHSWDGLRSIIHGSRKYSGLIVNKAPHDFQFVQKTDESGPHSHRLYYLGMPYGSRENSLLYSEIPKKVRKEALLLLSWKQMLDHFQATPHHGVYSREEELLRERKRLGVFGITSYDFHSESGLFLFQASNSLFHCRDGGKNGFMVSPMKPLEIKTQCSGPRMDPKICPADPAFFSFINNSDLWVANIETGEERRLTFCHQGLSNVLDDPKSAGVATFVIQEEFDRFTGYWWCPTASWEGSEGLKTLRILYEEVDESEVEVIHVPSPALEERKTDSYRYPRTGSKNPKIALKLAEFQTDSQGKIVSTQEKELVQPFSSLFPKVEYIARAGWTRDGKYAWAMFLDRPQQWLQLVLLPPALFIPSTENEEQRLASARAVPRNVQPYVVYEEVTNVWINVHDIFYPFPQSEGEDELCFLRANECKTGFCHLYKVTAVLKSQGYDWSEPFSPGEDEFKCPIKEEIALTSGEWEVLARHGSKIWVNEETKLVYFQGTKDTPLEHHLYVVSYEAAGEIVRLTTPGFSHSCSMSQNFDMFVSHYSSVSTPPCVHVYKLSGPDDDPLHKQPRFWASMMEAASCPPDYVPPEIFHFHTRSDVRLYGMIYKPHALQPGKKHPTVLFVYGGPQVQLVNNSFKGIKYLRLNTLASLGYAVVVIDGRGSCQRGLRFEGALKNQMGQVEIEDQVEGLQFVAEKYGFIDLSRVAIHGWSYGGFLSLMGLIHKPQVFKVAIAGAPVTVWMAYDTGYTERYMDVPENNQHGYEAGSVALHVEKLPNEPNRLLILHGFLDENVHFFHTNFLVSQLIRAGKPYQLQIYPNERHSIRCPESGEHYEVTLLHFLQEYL

A word on the IC50: it is the midpoint of a concentration-inhibition curve. A higher IC50 goes with a need for much substance. The term ED50 denotes the dose that gives a 50% effect, or the effect in half of the subjects. In general, AUC(0-inf) refers to the area under the concentration-time curve extrapolated to infinity. A low value points to less exposure. As usually defined, the Cmax is the peak of the concentration-time curve. One may read the MRT as a mean duration of stay, worked out from the concentration-time curve. The term Tmax denotes the time at which the peak concentration occurs. For `CC#CCn1c(N2CCC[C@@H](N)C2)nc2c1c(=O)n(Cc1ncccc1C#N)c(=O)n2C` [1-[(3-cyano-pyridin-2-yl)methyl]-3-methyl-7-(2-butyn-1-yl)-8-[3-(R)-amino-piperidin-1-yl]-xanthine monohydrochloride], the concentration for half-maximal inhibition (IC50) against plasma DPP IV was around 0.0017 µM; at DPP 9 it was above 10 µM; on M1 muscarinic receptors, 3 µM. The “reduction of AUC for glucose excursion in OGTT” value in data set [1] (1 mg/kg 16 hours before OGTT (delayed setting)) was determined as 29%. The values for the median effective dose (ED50) in data set [1] (acute setting) and in data set [1] (delayed setting) were 0.2 mg/kg and 0.3 mg/kg, respectively. Moreover, the “suppression of AUC for glucose excursion in OGTT” value in data set [1] (acute dosing of 1 mg/kg) worked out at 38%. For the same molecule, in data set [2] (single oral 1.0, 5.0, 10.0 mg/kg), the half live entry is given as “over 25 hours”. Further, the AUC(0-inf) in data set [2] (1.0 mg/kg single oral) came to 1.14 µM·h; in data set [2] (5.0 mg/kg single oral), 5.48 µM·h; in data set [2] (10 mg/kg single oral), 26.3 µM·h. The Cmax in data set [2] (1.0 mg/kg single oral) was determined as 175 nM; in data set [2] (5.0 mg/kg single oral), 931 nM; in data set [2] (10 mg/kg single oral), 5470 nM. Besides, the MRT in data set [2] (1.0 mg/kg single oral) amounted to 12.3 h; in data set [2] (5.0 mg/kg single oral), 6.76 h; in data set [2] (10 mg/kg single oral), 5.73 h. Besides, the time of peak concentration (Tmax) in data set [2] (1.0 mg/kg single oral) was found to be 1.33 h; in data set [2] (5.0 mg/kg single oral), 1.83 h; in data set [2] (10 mg/kg single oral), 1.33 h. The half-life in data set [2] (1.0 mg/kg single oral) was 25.4 h; in data set [2] (5.0 mg/kg single oral), 28.8 h; in data set [2] (10 mg/kg single oral), 37.6 h.
